Reference: patent publication US10189857B2, “Positive allosteric modulators of the muscarinic acetylcholine receptor M4” (Vanderbilt University, priority 2016, dated 2019)

Target: T1, Human M4 (Homo sapiens, UniProt P08173)
T1 construct: expressed in transfected cells; host or cells: CHO-K1 (American Type Culture Collection), stably expressing M4 and Gqi5
T1 sequence (P08173 1-479): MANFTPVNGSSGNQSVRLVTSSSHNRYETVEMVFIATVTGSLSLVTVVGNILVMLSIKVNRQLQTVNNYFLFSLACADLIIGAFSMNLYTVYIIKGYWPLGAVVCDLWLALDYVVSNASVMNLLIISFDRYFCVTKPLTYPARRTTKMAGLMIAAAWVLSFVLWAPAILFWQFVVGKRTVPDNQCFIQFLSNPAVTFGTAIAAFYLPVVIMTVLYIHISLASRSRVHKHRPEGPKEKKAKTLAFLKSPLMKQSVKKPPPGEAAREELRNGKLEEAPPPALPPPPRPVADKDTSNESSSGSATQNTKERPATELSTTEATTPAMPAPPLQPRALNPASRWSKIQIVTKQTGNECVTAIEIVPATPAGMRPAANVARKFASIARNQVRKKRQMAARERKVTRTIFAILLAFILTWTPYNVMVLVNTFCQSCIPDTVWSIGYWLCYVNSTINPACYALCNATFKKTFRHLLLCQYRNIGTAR
Assay: mAChR M4 cell-based functional assay (calcium flux, potentiation of EC20 acetylcholine response)
Details: M4/Gqi5/CHO-K1 cells; for Emax at 30 µM: % ACh maximum at 30 μM; for EC50: PAM activity as increase in EC20 acetylcholine response
Experimental: Human M4 cDNA, along with the chimeric G protein Gqi5, were transfected into Chinese hamster ovary (CHO-K1) cells purchased from the American Type Culture Collection using Lipofectamine2000. M4/Gqi5/CHO cells were grown in Ham's F-12 medium containing 10% heat-inactivated fetal bovine serum (FBS), 20 mM HEPES, 500 μg/mL G418 sulfate, and 200 μg/mL Hygromycin B.
For high throughput measurement of agonist-evoked increases in intracellular calcium, CHO-K1 cells stably expressing muscarinic receptors were plated in growth medium lacking G418 and hygromycin at 15,000 cells/20 μL/well in Greiner 384-well black-walled, tissue culture (TC)-treated, clear-bottom plates (VWR). Cells were incubated overnight at 37° C. and 5% CO2. The next day, cells were washed using an ELX 405 (BioTek) with assay buffer; the final volume was then aspirated to 20 μL. Next, 20 μL of a 2.3 μM stock of Fluo-4/acetoxymethyl ester (Invitrogen, Carlsbad, Calif.), prepared as a 2.3 mM stock in DMSO and mixed in a 1:1 ratio with 10% (w/v) Pluronic F-127 and diluted in assay buffer, was added to the wells and the cell plates were incubated for 50 min at 37° C. and 5% CO2. Dye was removed by washing with the ELX 405 and the final volume was aspirated to 20 μL. Compound master plates were formatted in an 11 point concentration-response curve (CRC) format (1:3 dilutions) in 100% DMSO with a starting concentration of 10 mM using a BRAVO liquid handler (Agilent). Test compound CRCs were then transferred to daughter plates (240 nL) using the Echo acoustic plate reformatter (Labcyte, Sunnyvale, Calif.) and then diluted into assay buffer (40 μL) to a 2× stock using a Thermo Fisher Combi (Thermo Fisher Scientific, Waltham, Mass.).
Calcium flux was measured using the Functional Drug Screening System (FDSS) 6000 or 7000 (Hamamatsu Corporation, Tokyo, Japan) as an increase in the fluorescent static ratio. Compounds were applied to cells (20 μL, 2×) using the automated system of the FDSS at 2-4 seconds into the protocol and the data were collected at 1 Hz. At approximately 144 s, […] an EC20 concentration of the muscarinic receptor agonist acetylcholine was added (5×), followed by the addition of 12 μL of an EC80 concentration of acetylcholine at approximately the 230 s time point (5×). Agonist activity was analyzed as a concentration-dependent increase in calcium mobilization upon compound addition. Positive allosteric modulator activity was analyzed as a concentration-dependent increase in the EC20 acetylcholine response. Antagonist activity was analyzed as a concentration-dependent decrease in the EC80 acetylcholine response. Concentration-response curves were generated using a four-parameter logistical equation in XLFit curve fitting software (IDBS, Bridgewater, N.J.) for Excel (Microsoft, Redmond, Wash.) or Prism (GraphPad Software, Inc., San Diego, Calif.) or the Domatics software platform (Domatics, Bishop's Stortford, UK).
Compounds were synthesized as described above. Activity (EC50 and Emax) was determined in the mAChR M4 cell-based functional assay as described above and the data are shown in Table 2. The compound numbers correspond to the compound numbers used in Table 1.

Cc1c2c(N)c(C(=O)N3CCC(c4ccccc4)C3)sc2nn2cnnc12 (stereo not drawn) [Compound 1, (8-amino-9-methylthieno[3,2-e][1,2,4]triazolo[4,3-b]pyridazin-7-yl)(3-phenylpyrrolidin-1-yl)methanone]
Emax at 30 µM: 38.8%
EC50: 3330 nM

Cc1c2c(N)c(C(=O)N3CCCC3)sc2nn2cnnc12 [Compound 2, (8-amino-9-methylthieno[3,2-e][1,2,4]triazolo[4,3-b]pyridazin-7-yl)(pyrrolidin-1-yl)methanone]
Emax at 30 µM: 72.2%
EC50: 9670 nM

Cc1c2c(N)c(C(=O)NC3Cc4ccccc4C3)sc2nn2cnnc12 [Compound 3, 8-amino-N-(2,3-dihydro-1H-inden-2-yl)-9-methylthieno[3,2-e][1,2,4]triazolo[4,3-b]pyridazine-7-carboxamide]
Emax at 30 µM: 82.3%
EC50: 90 nM

COc1ccc(CNC(=O)c2sc3nn4cnnc4c(C)c3c2N)cc1 [Compound 4, 8-amino-N-(4-methoxybenzyl)-9-methylthieno[3,2-e][1,2,4]triazolo[4,3-b]pyridazine-7-carboxamide]
Emax at 30 µM: 80.6%
EC50: 670 nM

Cc1c2c(N)c(C(=O)NC3CC3)sc2nn2cnnc12 [Compound 5, 8-amino-N-cyclopropyl-9-methylthieno[3,2-e][1,2,4]triazolo[4,3-b]pyridazine-7-carboxamide]
Emax at 30 µM: 74.2%
EC50: 290 nM

Cc1c2c(N)c(C(=O)NC3CCC3)sc2nn2cnnc12 [Compound 6, 8-amino-N-cyclobutyl-9-methylthieno[3,2-e][1,2,4]triazolo[4,3-b]pyridazine-7-carboxamide]
Emax at 30 µM: 71.8%
EC50: 890 nM

Cc1c2c(N)c(C(=O)NC3CCN(c4ccccc4)CC3)sc2nn2cnnc12 [Compound 7, 8-amino-9-methyl-N-(1-phenylpiperidin-4-yl)thieno[3,2-e][1,2,4]triazolo[4,3-b]pyridazine-7-carboxamide]
Emax at 30 µM: 42.5%
EC50: 7000 nM

Cc1c2c(N)c(C(=O)NCc3cccc(F)c3)sc2nn2cnnc12 [Compound 8, 8-amino-N-(3-fluorobenzyl)-9-methylthieno[3,2-e][1,2,4]triazolo[4,3-b]pyridazine-7-carboxamide]
Emax at 30 µM: 78%
EC50: 370 nM

Cc1c2c(N)c(C(=O)NCc3ccc(F)cc3)sc2nn2cnnc12 [Compound 9, 8-amino-N-(4-fluorobenzyl)-9-methylthieno[3,2-e][1,2,4]triazolo[4,3-b]pyridazine-7-carboxamide]
Emax at 30 µM: 76.3%
EC50: 1120 nM
